{"source": "patent US20250074934A1", "about": "“CRYSTAL OF 4’-SUBSTITUTED NUCLEOSIDE, AND PREPARATION METHOD THEREFOR, COMPOSITION THEREOF AND USE THEREOF” (HENAN GENUINE BIOTECH CO., LTD., priority 2022, published 2025)", "key": {"[1]": {"test_system": "HIV", "conditions": "cited from earlier work; for EC50: read-out: HIV inhibitory activity EC50"}, "[2]": {"conditions": "within the tested dose range; read-out: cytotoxicity CC50; cited from earlier work"}, "[3]": {"assay": "stability of crystal forms on storage, drying or heating, checked by XRPD", "format": "physicochemical", "experimental": "The type XVI crystal was heated to 55° C. in a nitrogen atmosphere and held for 2 to 24 h.\nThe type XVI crystal and the type XVII crystal were left at 60±5° C. for 5 days, respectively.\nThe type XVII crystal was left for 5 days under the conditions of 25° C. and 92.5±5% humidity.\nThe type XVIII crystal was heated to 150° C. or left for 24 h under the conditions of 25° C. and 92.5±5% humidity.\nThe crystal suffered from a weight loss of 13.2% when heated to 110° C., and a weight loss of 3.5% when further heated to 200° C. Three endothermic signals occurred in the range of 80° C. to 140° C. The type I crystal was heated to 55° C. under nitrogen protection and then cooled to room temperature. The sample was removed and exposed to air to test XRPD.\nAs the type II crystal was unstable and had been transformed after dying for a short period of time, no further studies were carried out on the type II crystal.\nUnder the conditions of nitrogen protection, the type IV crystal was heated to 141° C. and then tested for XRPD.\nThe type V crystal was subjected to the variable-temperature XRPD test.\nThe type VI crystal was heated to 160° C. under the nitrogen protection.\nUnder the nitrogen protection, the type VII crystal was heated to 130° C. and then cooled to room temperature. The sample was removed and exposed to the air to test XRPD.\nUnder the nitrogen protection, the type VIII crystal was heated to 160° C. and then cooled to room temperature. The sample was removed and exposed to the air to test XRPD.\nThe crystal was heated to 95° C. under nitrogen protection and then cooled to room temperature. The sample was removed and exposed to the air to test XRPD. […] The crystal was heated to 160° C. under the same conditions of nitrogen protection and then cooled to room temperature. The sample was removed and exposed to the air to test XRPD.\nThe type X crystal was subjected to the variable-temperature XRPD test.\nThe samples open dried at room temperature were characterized by TGA/DSC.\nMeanwhile, the type XIII crystal was coated to test XRPD, and new type XIV crystal could be observed."}, "[4]": {"assay": "LC-MS detection of chemical changes in the crystal", "format": "physicochemical", "conditions": "obtained from type XVI crystal left at 60° C. for 5 days", "experimental": "The type XVI crystal was left at 60° C. for 5 days to obtain a type XVIII crystal, which was an anhydrous crystal."}, "[5]": {"conditions": "heated to 160° C. under nitrogen protection"}}}
{"compound": "C#C[C@]1(CO)O[C@@H](n2cnc3c(N)nc(F)nc32)C[C@@H]1O", "note": "[Compound 1]", "values": [{"measurement": "EC50", "setting": "[1]", "result": 0.05, "unit": "nM"}, {"measurement": "increase of HIV inhibitory activity by introduction of 2-fluorine", "setting": "[1]; versus 4′-ethynyl-2′-deoxyadenosine (EdA)", "result": 2200, "unit": "times"}]}
{"compound": "C#C[C@]1(CO)O[C@@H](n2cnc3c(N)ncnc32)C[C@@H]1O", "note": "[EdA, 4′-ethynyl-2′-deoxyadenosine]", "values": [{"measurement": "EC50", "setting": "[1]", "result": 11, "unit": "nM"}]}
{"compound": "C#C[C@]1(CO)O[C@@H](n2cnc3c(N)nc(F)nc32)[C@@H](F)[C@@H]1O", "note": "[compound (3), (2R,3R,4S,5R)-5-(6-amino-2-fluoro-9H-purin-9-yl)-2-ethynyl-4-fluoro-2-(hydroxymethyl)tetrahydrofuran-3-ol]", "values": [{"measurement": "EC50", "setting": "[1]", "result": 0.9, "unit": "nM"}, {"measurement": "CC50", "setting": "[2]", "result": "> 8", "unit": "µM"}]}
{"compound": "C#C[C@]1(CO)O[C@@H](n2cnc3c(N)nc(F)nc32)[C@@H](F)[C@@H]1O", "note": "[type I crystal]", "values": [{"measurement": "XRPD after heating", "setting": "[3]; heated to 55° C. under nitrogen, cooled to room temperature, exposed to air", "result": "diffraction peak intensity of the sample was somewhat decreased"}, {"measurement": "XRPD after heating", "setting": "[3]; heated to 100° C. under nitrogen protection", "result": "transformed into an amorphous crystal"}]}
{"compound": "C#C[C@]1(CO)O[C@@H](n2cnc3c(N)nc(F)nc32)[C@@H](F)[C@@H]1O", "note": "[type II crystal]", "values": [{"measurement": "crystal form after vacuum drying", "setting": "[3]; vacuum drying at room temperature for half an hour", "result": "transformed into a type III crystal"}]}
{"compound": "C#C[C@]1(CO)O[C@@H](n2cnc3c(N)nc(F)nc32)[C@@H](F)[C@@H]1O", "note": "[type IV crystal]", "values": [{"measurement": "stability by TGA", "setting": "[3]; 120° C.", "result": "unstable"}, {"measurement": "XRPD of dried crystal after closed storage", "setting": "[3]; dried crystal left closed at room temperature for about 5 days", "result": "increased relative intensity of the diffraction peaks and increased number of diffraction peaks"}, {"measurement": "XRPD after heating", "setting": "[3]; heated to 141° C. under nitrogen protection", "result": "transformed into a stable type III crystal"}, {"measurement": "XRPD after vacuum drying", "setting": "[3]; vacuum dried at room temperature for 15 min", "result": "decreased relative intensity of the diffraction peaks"}]}
{"compound": "C#C[C@]1(CO)O[C@@H](n2cnc3c(N)nc(F)nc32)[C@@H](F)[C@@H]1O", "note": "[type IX crystal]", "values": [{"measurement": "XRPD after heating", "setting": "[3]; heated to 95° C. under nitrogen, cooled to room temperature, exposed to air", "result": "degree of crystallinity was further decreased"}, {"measurement": "XRPD after heating", "setting": "[3]; [5]", "result": "crystal form had been transformed"}, {"measurement": "crystallinity after closed storage", "setting": "[3]; left closed at room temperature for about 3 days", "result": "reduced degree of crystallinity"}]}
{"compound": "C#C[C@]1(CO)O[C@@H](n2cnc3c(N)nc(F)nc32)[C@@H](F)[C@@H]1O", "note": "[type V crystal]", "values": [{"measurement": "variable-temperature XRPD", "setting": "[3]; further heated to 154° C.", "result": "transformed into another crystal"}, {"measurement": "variable-temperature XRPD", "setting": "[3]; heated to 90° C. and 130° C. under nitrogen", "result": "substantially transformed into an amorphous crystal"}, {"measurement": "variable-temperature XRPD, nitrogen purge", "setting": "[3]; purged with nitrogen for about 20 min", "result": "significant decrease in degree of crystallinity"}]}
{"compound": "C#C[C@]1(CO)O[C@@H](n2cnc3c(N)nc(F)nc32)[C@@H](F)[C@@H]1O", "note": "[type VI crystal]", "values": [{"measurement": "XRPD after heating", "setting": "[3]; [5]", "result": "crystal form was transformed"}]}
{"compound": "C#C[C@]1(CO)O[C@@H](n2cnc3c(N)nc(F)nc32)[C@@H](F)[C@@H]1O", "note": "[type VII crystal]", "values": [{"measurement": "XRPD after heating", "setting": "[3]; heated to 130° C. under nitrogen, cooled to room temperature, exposed to air", "result": "crystal form was transformed"}]}
{"compound": "C#C[C@]1(CO)O[C@@H](n2cnc3c(N)nc(F)nc32)[C@@H](F)[C@@H]1O", "note": "[type X crystal]", "values": [{"measurement": "variable-temperature XRPD", "setting": "[3]; further heated to 130° C.", "result": "diffraction peak intensity was significantly reduced"}, {"measurement": "variable-temperature XRPD", "setting": "[3]; further heated to 145° C.", "result": "crystal form was transformed"}, {"measurement": "variable-temperature XRPD", "setting": "[3]; heated to 120° C. while purging with nitrogen", "result": "position of the diffraction peak shifted"}]}
{"compound": "C#C[C@]1(CO)O[C@@H](n2cnc3c(N)nc(F)nc32)[C@@H](F)[C@@H]1O", "note": "[type XII crystal]", "values": [{"measurement": "crystal form after vacuum drying", "setting": "[3]; vacuum drying at room temperature for 10 min", "result": "transformed into an amorphous crystal"}]}
{"compound": "C#C[C@]1(CO)O[C@@H](n2cnc3c(N)nc(F)nc32)[C@@H](F)[C@@H]1O", "note": "[type XIII crystal]", "values": [{"measurement": "crystal form in solvent environment", "setting": "[3]; left in a solvent environment at room temperature", "result": "transformed into the type XIV crystal"}, {"measurement": "crystal form after open drying", "setting": "[3]; open dried at room temperature for about 2 h", "result": "crystal form was transformed"}]}
{"compound": "C#C[C@]1(CO)O[C@@H](n2cnc3c(N)nc(F)nc32)[C@@H](F)[C@@H]1O", "note": "[type XIV crystal]", "values": [{"measurement": "crystal form after removal from solvent", "setting": "[3]; removed from the solvent environment", "result": "transformed into the type XIII crystal"}]}
{"compound": "C#C[C@]1(CO)O[C@@H](n2cnc3c(N)nc(F)nc32)[C@@H](F)[C@@H]1O", "note": "[type XV crystal]", "values": [{"measurement": "crystal form after heating", "setting": "[3]; heated to 120° C.", "result": "crystal form was transformed"}]}
{"compound": "C#C[C@]1(CO)O[C@@H](n2cnc3c(N)nc(F)nc32)[C@@H](F)[C@@H]1O", "note": "[type XVI crystal]", "values": [{"measurement": "crystal form by XRPD after heating", "setting": "[3]; heated to 55° C. in nitrogen atmosphere, held 2 to 24 h", "result": "type XVII crystal was also obtained"}, {"measurement": "crystal form by XRPD after storage", "setting": "[3]; left at 60±5° C. for 5 days", "result": "transformed into the type XVIII crystals"}, {"measurement": "crystal form after vacuum drying", "setting": "[3]; vacuum drying at room temperature for 24 h", "result": "transformed into a monohydrate crystal form—type XVII crystal"}]}
{"compound": "C#C[C@]1(CO)O[C@@H](n2cnc3c(N)nc(F)nc32)[C@@H](F)[C@@H]1O", "note": "[type XVII crystal]", "values": [{"measurement": "crystal form after drying", "setting": "[3]; dried at 90° C. for 1 to 24 h", "result": "obtain the type XVIII crystal"}, {"measurement": "crystal form by XRPD after storage", "setting": "[3]; left for 5 days at 25° C. and 92.5±5% humidity", "result": "type XVI crystal was obtained"}]}
{"compound": "C#C[C@]1(CO)O[C@@H](n2cnc3c(N)nc(F)nc32)[C@@H](F)[C@@H]1O", "note": "[type XVIII crystal]", "values": [{"measurement": "crystal form by XRPD after heating", "setting": "[3]; heated to 150° C.", "result": "crystal form did not change"}, {"measurement": "crystal form by XRPD after storage", "setting": "[3]; left for 24 h at 25° C. and 92.5±5% humidity", "result": "crystal form did not change"}, {"measurement": "chemical changes by LC-MS", "setting": "[4]", "result": "did not undergo chemical changes"}]}
